The text below walks through data of US20220235064A1 (WELLMARKER BIO CO., LTD., priority 2019, published 2022).

The test system of test [1] is cancer cell line KM12C, in which RON is activated. The test is described as follows: Cell-killing efficacy in RON-activated cancer cell line (trypan blue). The conditions noted are these: Homo sapiens, 48 hours, trypan blue, n=2, read-out: Cell death (%) Cancer cell line KM12C. Format: cell-based. The procedure:
Experimental Example 3: Measurement of Cell-Killing Efficacy of Example Compounds in RON-Activated Cancer Cell Line
The cancer cell line KM12C (80015, KCLB, MEM+10% FBS), in which RON is activated, was dispensed into each 60 mm^2 dish at 1×10^5 cells. After 24 hours, the dish was treated with each of the example compounds at a concentration of 1 μM or 5 μM while performing medium exchange, and then reaction was allowed to proceed for 48 hours. After 48 hours, centrifugation was performed for 4 minutes at 1,500 rpm to collect cells and cell fluid. Thereafter, living cells and dead cells were quantified (n=2) using a trypan blue solution (15250-061, Gibco), and statistical analysis was performed using Excel-T-test. Here, as a negative control, only a solvent (0.100 DMSO) was used; and as a positive control, N-(4-(2-amino-3-chloropyridin-4-yloxy)-3-fluorophenyl)-4-ethoxy-1-(4-fluorophenyl)-2-oxo-1,2-dihydropyridine-3-carboxamide, which is the compound of Example 1 in WO 2008/058229 A1, was used.

For test [2] the test system is unchanged. In words: Cell growth inhibitory ability in RON-activated cancer cell line (MTS). It counts as cell-based. The conditions noted are these: Homo sapiens, 48 hours, absorbance 490 nm. The procedure: Experimental Example 2: Identification of Cell Growth Inhibitory Ability of Example Compounds in RON-Activated Cancer Cell Line
The cancer cell line KM12C (80015, KCLB, MEM+1K° FBS), in which RON is activated, was treated with each of the example compounds at a concentration of 10 μM, and then reaction was allowed to proceed for 48 hours. 24 hours after completion of the reaction, 20 μl of MTS solution (CellTiter 96 Aqueous One Solution Cell Proliferation Assay, product number: G3581, Promega) was added to each well, and then incubation was performed at a temperature of 37° C. in 50 CO2 incubator for 4 hours. Then, an IC50 value of the compound was derived by measuring its absorbance value at a wavelength of 490 nm using a Victor X5 plate reader. Here, as a positive control, N-(4-(2-amino-3-chloropyridin-4-yloxy)-3-fluorophenyl)-4-ethoxy-1-(4-fluorophenyl)-2-oxo-1,2-dihydropyridine-3-carboxamide, which is the compound of Example 1 in WO 2008/058229 A1, was used.

For orientation: IC50 means the midpoint of a concentration-inhibition curve. Low values mean higher potency, high ones lower potency. `COC1CCN(Cc2ccc(-c3cc4nccc(Oc5ccc(NC(=O)c6c7c(cn(-c8ccc(F)cc8)c6=O)CCO7)cc5F)c4s3)nc2)C1` (stereo not drawn) [Example 25, N-(3-Fluoro-4-((2-(5-((3-methoxypyrrolidin-1-yl)methyl)pyridin-2-yl)thieno[3,2-b]pyridin-7-yl)oxy)phenyl)-5-(4-fluorophenyl)-6-oxo-2,3,5,6-tetrahydrofuro[3,2-c]pyridine-7-carboxamide]: in test [1], the cytotoxicity at 1 µM worked out at 17.5% and the cytotoxicity at 5 µM is 21%. The IC50 in test [2] worked out at 1 nM.

Turning to `O=C(Nc1ccc(Oc2ccnc3cc(-c4ccc(CN5CCC(F)C5)cn4)sc23)c(F)c1)c1c2c(cn(-c3ccc(F)cc3)c1=O)CCO2` (stereo not drawn) [Example 27, N-(3-Fluoro-4-((2-(5-((3-fluoropyrrolidin-1-yl)methyl)pyridin-2-yl)thieno[3,2-b]pyridin-7-yl)oxy)phenyl)-5-(4-fluorophenyl)-6-oxo-2,3,5,6-tetrahydrofuro[3,2-c]pyridine-7-carboxamide], in test [1], the cytotoxicity at 1 µM amounted to 17.3% and the cytotoxicity at 5 µM amounted to 29%. The molecule further came in with an IC50 in test [2] of 2 nM.

`O=C(Nc1ccc(Oc2ccnc3cc(-c4ccc(CN5CCC(F)(F)C5)cn4)sc23)c(F)c1)c1c2c(cn(-c3ccc(F)cc3)c1=O)CCO2` [Example 28, N-(4-((2-(5-((3,3-Difluoropyrrolidin-1-yl)methyl)pyridin-2-yl)thieno[3,2-b]pyridine-7-yl)oxy)-3-fluorophenyl)-5-(4-fluorophenyl)-6-oxo-2,3,5,6-tetrahydrofuro[3,2-c]pyridine-7-carboxamide]: in test [1], the cytotoxicity at 1 µM turned out to be 9.6% and the cytotoxicity at 5 µM worked out at 10.3%. In test [2], this molecule showed an IC50 of 3 nM.

Take `O=C(Nc1ccc(Oc2ccnc3cc(-c4ccc(CN5CCC(O)CC5)cn4)sc23)c(F)c1)c1c2c(cn(-c3ccc(F)cc3)c1=O)CCO2` [Example 29, N-(3-Fluoro-4-((2-(5-((4-hydroxypiperidin-1-yl)methyl)pyridin-2-yl)thieno[3,2-b]pyridin-7-yl)oxy)phenyl)-5-(4-fluorophenyl)-6-oxo-2,3,5,6-tetrahydrofuro[3,2-c]pyridine-7-carboxamide]: in test [1], the cytotoxicity at 1 µM came out at 22.6% and the cytotoxicity at 5 µM came out at 24.5%. In test [2], this molecule had an IC50 of 1 nM.

For the molecule `O=C(Nc1ccc(Oc2ccnc3cc(-c4ccc(CN5CCCC(O)C5)cn4)sc23)c(F)c1)c1c2c(cn(-c3ccc(F)cc3)c1=O)CCO2` (stereo not drawn) [Example 30, N-(3-Fluoro-4-((2-(5-((3-hydroxypiperidin-1-yl)methyl)pyridin-2-yl)thieno[3,2-b]pyridin-7-yl)oxy)phenyl)-5-(4-fluorophenyl)-6-oxo-2,3,5,6-tetrahydrofuro[3,2-c]pyridine-7-carboxamide], in test [1], the cytotoxicity at 1 µM came to 24.8% and the cytotoxicity at 5 µM stood at 25.9%. For the same molecule, in test [2], the IC50 stood at 1 nM.

As for `COC1CCCN(Cc2ccc(-c3cc4nccc(Oc5ccc(NC(=O)c6c7c(cn(-c8ccc(F)cc8)c6=O)CCO7)cc5F)c4s3)nc2)C1` (stereo not drawn) [Example 32, N-(3-Fluoro-4-((2-(5-((3-methoxypiperidin-1-yl)methyl)pyridin-2-yl)thieno[3,2-b]pyridin-7-yl)oxy)phenyl)-5-(4-fluorophenyl)-6-oxo-2,3,5,6-tetrahydrofuro[3,2-c]pyridine-7-carboxamide], in test [1], the cytotoxicity at 1 µM was 13.5% and the cytotoxicity at 5 µM amounted to 20.4%. For the same molecule, in test [2], the half-inhibitory concentration (IC50) stood at 6 nM.

Take `O=C(Nc1ccc(Oc2ccnc3cc(-c4ccc(CN5CCC(F)CC5)cn4)sc23)c(F)c1)c1c2c(cn(-c3ccc(F)cc3)c1=O)CCO2` [Example 34, N-(3-Fluoro-4-((2-(5-((4-fluoropiperidin-1-yl)methyl)pyridin-2-yl)thieno[3,2-b]pyridin-7-yl)oxy)phenyl)-5-(4-fluorophenyl)-6-oxo-2,3,5,6-tetrahydrofuro[3,2-c]pyridine-7-carboxamide]: in test [1], the cytotoxicity at 1 µM was found to be 13.7% and the cytotoxicity at 5 µM was 15.9%. The IC50 in test [2] was 3 nM.
